Legend:
[1] = molecular target: T1, Human immunodeficiency virus type 1 integrase (Human immunodeficiency virus 1, UniProt Q7ZJM1); assay: Inhibition of HIV1 recombinant integrase 3' processing activity using [32P]-radiolabeled full-length DNA as substrate after 1 hr by densitometric analysis
[2] = molecular target: T1, Human immunodeficiency virus type 1 integrase; assay: Inhibition of HIV1 recombinant integrase strand transfer activity using [32P]-radiolabeled full-length DNA as substrate after 1 hr by densitometric analysis
[3] = molecular target: Human immunodeficiency virus type 1 integrase (Human immunodeficiency virus 1) (UniProt Q7ZJM1); assay: Selectivity ratio of IC50 for HIV1 recombinant integrase strand transfer activity using precleaved LTR DNA as substrate to IC50 for HIV1 recombinant integrase strand transfer activity using [32P]-radiolabeled full-length DNA as substrate
[4] = molecular target: T1, Human immunodeficiency virus type 1 integrase; assay: Inhibition of HIV1 recombinant integrase strand transfer activity using precleaved LTR DNA as substrate after 1 hr by densitometric analysis

T1 sequence (Q7ZJM1 whole entry): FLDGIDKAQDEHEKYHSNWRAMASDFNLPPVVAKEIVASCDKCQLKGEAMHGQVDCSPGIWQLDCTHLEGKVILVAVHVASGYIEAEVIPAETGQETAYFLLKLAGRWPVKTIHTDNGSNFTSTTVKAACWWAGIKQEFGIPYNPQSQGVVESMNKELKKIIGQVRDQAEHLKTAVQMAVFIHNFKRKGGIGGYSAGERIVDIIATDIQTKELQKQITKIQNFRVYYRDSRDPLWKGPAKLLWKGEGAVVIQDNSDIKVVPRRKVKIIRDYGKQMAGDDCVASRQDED
Human immunodeficiency virus type 1 integrase (Human immunodeficiency virus 1), sequence (Q7ZJM1 as listed by the source): as the sequence (Q7ZJM1 whole entry) above

| Compound | IC50 [1] [µM] | IC50 [2] [µM] | Ratio IC50 [3] | IC50 [4] [µM] |
| --- | --- | --- | --- | --- |
| C[N+](C)(C)C.FC(F)(F)C(F)(F)[P-](F)(F)(F)(C(F)(F)C(F)(F)F)C(F)(F)C(F)(F)F | 138 | 38.5 | – | – |
| CCCCCCCCCCn1ccnc1 | > 333 | > 333 | – | – |
| CCCCCCCC[N+](C)(CCCCCCCC)CCCCCCCC [listing 1 of 2 here] | 9 | 6.12 | – | – |
| CCCCCCCCCCCCCCCCCCPCCCCCCCCCCCCCC.O=S(=O)(NS(=O)(=O)C(F)(F)F)C(F)(F)F (stereo not given) | > 100 | > 100 | – | – |
| CCCCCCCC[n+]1ccccc1 | > 100 | > 100 | – | – |
| CCCCCCCC[N+](C)(CCCCCCCC)CCCCCCCC [listing 2 of 2 here] | 6.8 | 2.8 | – | – |
| CCCCCCCCN(CCCCCCCC)CCCCCCCC | > 333 | > 333 | – | – |
| CCCCCCCCCCCCCCn1cc[n+](C)c1 | 55.2 | 20.2 | – | – |
| CN(C)C(N(C)C)N(C)C | > 100 | > 100 | – | – |
| CCCCCCCC[N+]1(C)CCCC1 | > 100 | > 100 | – | – |
| CCCCCCCCCCCCCCCCn1cc[n+](C)c1 | 2.5 | 1.3 | 3 | 5.6 |
| CCCCCCCCCCCCn1cc[n+](C)c1 | 72 | 36.6 | – | – |
| CCCCCCCCCCn1cc[n+](C)c1 | > 333 | > 333 | – | – |
| CCCCCCCC[N+](C)(CCCCCCCC)CCCCCCCC.O=S(=O)([N-]S(=O)(=O)C(F)(F)F)C(F)(F)F | > 100 | 6.6 | – | – |
| CCCCCCCCN(C)CCCCCCCC | > 333 | > 333 | – | – |
| CCCCCCCCCCCCCCCCCC[n+]1ccn(C)c1 [listing 1 of 2 here] | 1.7 | 1.1 | – | 3.5 |
| CCCCCCCC[n+]1ccn(C)c1 | > 100 | > 100 | – | – |
| CCCCCCCCCCCCCCCCCCn1ccnc1 | > 333 | > 333 | – | – |
| CCCCCCCCCCCCCCCCCC[n+]1ccn(C)c1.O=S(=O)([N-]S(=O)(=O)C(F)(F)F)C(F)(F)F | 1.6 | 1.53 | – | 4 |
| CCCCCCCCCCCCCCCCCC[n+]1ccn(C)c1 [listing 2 of 2 here] | – | 1.4 | – | – |
| C[N+](C)(C)C.O=C1O[B-]2(OC1=O)OC(=O)C(=O)O2 | > 333 | 310 | – | – |
